In brackets after ≈: the same amount, converted by molar mass.
How the values were obtained:
[1] = system: E. coli clinical strain 2018XJ105; assay: microbe, parasite or virus in culture; format: cell-based, Escherichia coli; settings: Escherichia coli; clinical E. coli 2018XJ105, MHB; read-out: MIC
Procedure: (§1) All the florfenicol-polyarginine conjugates were tested against Gram-positive and Gram-negative bacteria, including MRSA (ATCC 43300), S. aureus (ATCC 25923), E. coli (ATCC 25922), clinical strains of E. coli (2019XJ06, 2019XJ25, 2018XJ108, 2018XJ105, 2018XJ30) and clinical strains of florfenicol resistant E. coli (2017XJ30, 2019XJ20).
(§2) Gram-negative E. coli (ATCC 25922), clinical strains of E. coli (2019XJ06, 2019XJ25, 2018XJ108, 2018XJ105, 2018XJ30) and clinical strains of florfenicol resistant E. coli (2017XJ30, 2019XJ20) and Gram-positive MRSA (ATCC 43300) and S. aureus (ATCC 25923) were maintained in 50% glycerol at −80°C up to the time of use. The bacterial strains were cultured in Muller-Hinton broth (Guangdong Huan Kai Microbial Sci. &Tech. Co., Ltd. in China) media. Mueller-Hinton agar (Guangdong Huan Kai Microbial Sci. & Tech. Co., Ltd. in China) was used as growth medium in solid media.
(§3) CLSI guidelines were followed for determining MICs of all florfenicol-polyarginine conjugates by the broth microdilution method. The required bacterial (E. coli, S. aureus and MRSA) single colony was inoculated into Muller-Hinton broth (MHB) and cultured for 4–6 h. And then, the bacteria were adjusted to 10^6 CFU/ml in cultures. All compounds were prepared into a stock solution at a concentration of 0.1 mol/L with DMSO. The stock solutions were then diluted to required concentration (100, 50, 25, 12.5, 6.25, 3.125, 1.56, 0.78, 0.39 μmol/L) with MHB media. Subsequently, a 96 well plate was filled with these dilutions and 10^6 CFU/ml bacterial suspension. The diluted compounds of different concentrations (100 µl) were first added to 96 well plate, and then 100 µl bacterial dilutions (10^6 CFU/ml) was added. The negative and positive controls were 200 µl of MHB media and 100 µl of bacterial suspension combined with 100 µl of MHB media, respectively. The experiment of each compound was repeated three times, and each experiment was at least twice repeated. The 96 well plates were incubated at 37°C for 16–24 h. MIC indicated antibacterial activity. Florfenicol was used as a control drug.

[2] = system: E. coli clinical strain 2018XJ108; assay: microbe, parasite or virus in culture; format: cell-based, Escherichia coli; settings: Escherichia coli; clinical E. coli 2018XJ108, MHB; read-out: MIC
Procedure: as §1, §2, §3

[3] = system: E. coli clinical strain 2018XJ30; assay: microbe, parasite or virus in culture; format: cell-based, Escherichia coli; settings: Escherichia coli; clinical E. coli 2018XJ30, MHB; read-out: MIC
Procedure: as §1, §2, §3

[4] = system: E. coli clinical strain 2019XJ06; assay: microbe, parasite or virus in culture; format: cell-based, Escherichia coli; settings: Escherichia coli; clinical E. coli 2019XJ06, MHB; read-out: MIC
Procedure: as §1, §2, §3

[5] = system: E. coli clinical strain 2019XJ25; assay: microbe, parasite or virus in culture; format: cell-based, Escherichia coli; settings: Escherichia coli; clinical E. coli 2019XJ25, MHB; read-out: MIC
Procedure: as §1, §2, §3

E.coli (ATCC 25922) = assay: microbe, parasite or virus in culture; format: cell-based, Escherichia coli; settings: Escherichia coli, ATCC25922; E.coli (ATCC 25922), MHB; read-out: MIC
Procedure: as §1, §2, §3

[6] = system: florfenicol resistant E. coli clinical strain 2017XJ30; assay: microbe, parasite or virus in culture; format: cell-based, Escherichia coli; settings: Escherichia coli; florfenicol resistant E. coli 2017XJ30, MHB; read-out: MIC
Procedure: as §1, §2, §3

[7] = system: florfenicol resistant E. coli clinical strain 2019XJ20; assay: microbe, parasite or virus in culture; format: cell-based, Escherichia coli; settings: Escherichia coli; florfenicol resistant E. coli 2019XJ20, MHB; read-out: MIC
Procedure: as §1, §2, §3

S. aureus (ATCC 292130) = assay: microbe, parasite or virus in culture; format: cell-based, Staphylococcus aureus; settings: Staphylococcus aureus, ATCC292130; S. aureus (ATCC 292130), MHB; read-out: MIC
MRSA (ATCC 43300) = assay: microbe, parasite or virus in culture; format: cell-based, methicillin-resistant S. aureus; settings: Staphylococcus aureus; MRSA (ATCC 43300), MHB; read-out: MIC
Procedure: as §1, §2, §3

[8] = system: 10 strains tested (E. coli, S. aureus, MRSA, clinical E. coli strains); assay: microbe, parasite or virus in culture; format: cell-based; settings: Escherichia coli; against the 10 strains tested; read-out: MIC
Procedure: as §1, §2, §3

E. coli = assay: Propensity of bacterial resistance development (serial passage at 0.5 MIC); format: cell-based, Escherichia coli
Procedure: It is crucial to evaluate the potential emergence of resistance from these compounds. […] The process was repeated for 16 passages. […] However, E. coli became resistant to FFC after only a few days. Therefore, these conjugates can be to combat drug-resistant bacteria.
Compound E6 was used to evaluate the tendency of developing bacterial resistance towards the florfenicol-polyarginine conjugates. The control antibiotic florfenicol was chosen for E. coli. MIC of E6 and florfenicol for 24 h were determined against E. coli., and then 0.5 MIC of E6 and florfenicol was challenged repeatedly against E. coli. After the initial MIC experiment, serial passage was investigated by transferring the growing bacterial suspension at sub-MIC of the compounds (MIC/2) and MIC in every passage was determined again. The process was repeated for 16 passages. The MICs for E6 and florfenicol corresponding to days were draw into figure to determine the propensity of bacterial resistance development.

| MIC [8] [µM] | Structure (SMILES) | MIC [1] [µM] | MIC [2] [µM] | MIC [3] [µM] | MIC [4] [µM] | MIC [5] [µM] | MIC (E.coli (ATCC 25922)) [µM] | MIC [6] [µM] | MIC [7] [µM] | MIC (S. aureus (ATCC 292130)) [µM] | MIC (MRSA (ATCC 43300)) [µM] | change of MIC after 16 passages (E. coli) [fold] |
| --- | --- | --- | --- | --- | --- | --- | --- | --- | --- | --- | --- | --- |
| > 100 | CS(=O)(=O)c1ccc([C@@H](OC(=O)CCCCC(=O)O)[C@@H](CF)NC(=O)C(Cl)Cl)cc1 [Compound C3] | > 100 | > 100 | > 100 | > 100 | > 100 | > 100 | > 100 | > 100 | > 100 | > 100 |  |
|  | CS(=O)(=O)c1ccc([C@@H](O)[C@@H](CF)NC(=O)C(Cl)Cl)cc1 [Florfenicol] | 6.25 (≈ 2.24 µg/mL) | 6.25 (≈ 2.24 µg/mL) | 6.25 (≈ 2.24 µg/mL) | 6.25 (≈ 2.24 µg/mL) | 6.25 (≈ 2.24 µg/mL) | 6.25 (≈ 2.24 µg/mL) | > 100 | > 100 | 6.25 (≈ 2.24 µg/mL) | 6.25 (≈ 2.24 µg/mL) | 2 |
